# Experimental data published in patent US9340539B2, “Hepatitis C inhibitor compounds” (priority 2011, dated 2016).
# Test system: HCVpp (HCV E1/E2, isolate Con1) entry into Hep3B2.1-7 cells
# Test: microbe, parasite or virus in culture
# Type: cell-based
# Conditions: Hepatitis C virus, 72 h, read-out: EC50 (nM) (Ex. 58)
row,Structure (SMILES),EC50 [nM]
1,CC1(C)CC(C)(C)c2c([nH]c3ccc(-c4nnc(NC5CCS(=O)(=O)C5)o4)cc23)C1=O (stereo not drawn) [Compound 1103],34
2,O=C(NC1CCS(=O)(=O)C1)c1ccc2[nH]c3c(c2c1)C1(CCCC3=O)CC1 (stereo not drawn) [Compound 1104],122
3,COC(=O)c1ccc2[nH]c3c(c2c1)C(C)(C)CC(C)(C)C3=O [Compound 1107],195
4,CC1(C)CC(C)(C)c2c([nH]c3ccc(C(=O)NC4CCN(CCF)C4)cc23)C1=O (stereo not drawn) [Compound 2003],117
5,CC1(C)CC(C)(C)c2c([nH]c3ccc(C(=O)NC4CCN(C(=O)c5ccccn5)C4)cc23)C1=O (stereo not drawn) [Compound 2026],36
6,CC1(C)CC(C)(C)c2c([nH]c3ccc(C(=O)NC4CCN(S(C)(=O)=O)C4)cc23)C1=O (stereo not drawn) [Compound 2058],39
7,CN1CCC[C@H](NC(=O)c2ccc3[nH]c4c(c3c2)C(C)(C)CC(C)(C)C4=O)C1 [Compound 3006],102
8,CC1(C)CC2(CCOCC2)C(=O)c2[nH]c3ccc(C(=O)NC4CCS(=O)(=O)C4)cc3c21 (stereo not drawn) [Compound 5003],385
9,CC1(C)CC2(CC2)C(=O)c2[nH]c3ccc(C(=O)NC4CCN(C(=O)c5nc[nH]n5)C4)cc3c21 (stereo not drawn) [Compound 5008],22
10,CC1CC(C)(C)c2c([nH]c3ccc(C(=O)NC4CCS(=O)(=O)C4)cc23)C1=O (stereo not drawn) [Compound 5014],187
11,COCC1(C)CC(C)(C)c2c([nH]c3ccc(C(=O)NC4CCN(C(=O)c5n[nH]c(N)n5)C4)cc23)C1=O (stereo not drawn) [Compound 5017],9.3
12,CC1(C)CC2(CC2)c2c([nH]c3ccc(C(=O)NCCCn4cncn4)cc23)C1=O [Compound 6001],66
13,CC1(C)CC2(CCC2)c2c([nH]c3ccc(C(=O)NC4CCN(C(=O)c5nc[nH]n5)C4)cc23)C1=O (stereo not drawn) [Compound 6016],3.4
14,CC1(C)CC(C)(C)c2c([nH]c3ccc(C(=O)NC4CCS(=O)(=O)CC4)cc23)C1=O [Compound 7008],201
15,Cn1cncc1CNC(=O)CNC(=O)c1ccc2[nH]c3c(c2c1)C(C)(C)CC(C)(C)C3=O [Compound 7010],126
16,CC1(C)CC(C)(C)c2c([nH]c3ccc(C(=O)N[C@H]4CC[C@H](NCC5CC5)CC4)cc23)C1=O [Compound 7019],82
17,CC1(C)CC(C)(C)c2c([nH]c3ccc(C(=O)Nc4cnccn4)cc23)C1=O [Compound 7050],88
18,CC1(C)CC(C)(C)c2c([nH]c3cnc(C(=O)NCc4ccccn4)cc23)C1=O [Compound 9004],85
